Data reported in patent US20240299359A1, “PHARMACEUTICAL COMPOSITION FOR ANIMALS CONTAINING 5-HYDROXY-METHYLIMIDAZOLIDINE-2,4-DIONE COMPOUND AS ACTIVE INGREDIENT” (KYONGBO PHARM. CO., LTD., priority 2021, published 2024).
Values joined by “and” are separate entries in the source; they are usually repeats but may differ in a detail not shown here. Identical values can stand only once.

Experiment: 13-week repeated oral toxicity: weight measurement
Assay type: in vivo, beagle
Description: During the 13-week test period starting from the day before administration, the weight was measured a total of 15 times before administration (pre), before administration on the day of administration, and every week over the 13-week test period after the first administration at a predetermined time (remaining feed measurement time) before administration of the test substance (on every Tuesday during the test period).

In the case of `CN1C(=O)NC(=O)C1O` (centres unmarked) [KBP-001, 5-hydroxy-1-methylimidazolidine-2,4-dione], the Weight (200 mg/kg repeated oral (G2), female, week 0, individual animals) is reported as 9.6 (2×) and 9.1, the Weight, Mean (200 mg/kg repeated oral (G2), female, week 0, mean) is reported as 9.4 kg and the Weight (200 mg/kg repeated oral (G2), female, week 1, individual animals, in kg (unit assumed)) is reported as 9.5 and 9.3 and 9.9. The Weight, Mean (200 mg/kg repeated oral (G2), female, week 1, mean) was 9.6 kg, the Weight (200 mg/kg repeated oral (G2), female, week 2, individual animals, in kg (unit assumed)) was 9.4 and 9.2 and 9.8 and the Weight, Mean (200 mg/kg repeated oral (G2), female, week 2, mean) was 9.5 kg. For the same compound, the Weight (200 mg/kg repeated oral (G2), female, week 3, individual animals, in kg (unit assumed)) was 9.4 and 9.1 and 9.9, the Weight, Mean (200 mg/kg repeated oral (G2), female, week 3, mean) was 9.5 kg and the Weight (200 mg/kg repeated oral (G2), female, week 4, individual animals, in kg (unit assumed)) was 9.7 and 9.4 and 9.9. The Weight, Mean (200 mg/kg repeated oral (G2), female, week 4, mean) was 9.7 kg, the Weight (200 mg/kg repeated oral (G2), female, week 5, individual animals, in kg (unit assumed)) was 9.7 and 9.4 and 9.9 and the Weight, Mean (200 mg/kg repeated oral (G2), female, week 5, mean) was 9.7 kg. For the same compound, the Weight (200 mg/kg repeated oral (G2), female, week 6, individual animals) was 9.6 (2×) and 9.1, the Weight, Mean (200 mg/kg repeated oral (G2), female, week 6, mean) was 9.4 kg and the Weight (200 mg/kg repeated oral (G2), female, week 7, individual animals, in kg (unit assumed)) was 9.6 and 9.3 and 9.7. The Weight, Mean (200 mg/kg repeated oral (G2), female, week 7, mean) was 9.5 kg, the Weight (200 mg/kg repeated oral (G2), female, week 8, individual animals, in kg (unit assumed)) was 9.5 and 9.3 and 9.8 and the Weight, Mean (200 mg/kg repeated oral (G2), female, week 8, mean) was 9.5 kg. For the same compound, the Weight (200 mg/kg repeated oral (G2), female, week 9, individual animals, in kg (unit assumed)) was 9.6 and 9.4 and 9.9, the Weight, Mean (200 mg/kg repeated oral (G2), female, week 9, mean) was 9.6 kg and the Weight (200 mg/kg repeated oral (G2), female, week 10, individual animals, in kg (unit assumed)) was 9.6 and 9.3 and 10.0. The Weight, Mean (200 mg/kg repeated oral (G2), female, week 10, mean) was 9.6 kg, the Weight (200 mg/kg repeated oral (G2), female, week 11, individual animals) was 9.5 (2×) and 10.1 and the Weight, Mean (200 mg/kg repeated oral (G2), female, week 11, mean) was 9.7 kg. The Weight (200 mg/kg repeated oral (G2), female, week 12, individual animals, in kg (unit assumed)) was 9.6 and 9.5 and 10.0, the Weight, Mean (200 mg/kg repeated oral (G2), female, week 12, mean) was 9.7 kg and the Weight (200 mg/kg repeated oral (G2), female, week 13, individual animals, in kg (unit assumed)) was 9.7 and 9.5 and 10.2. For the same compound, the Weight, Mean (200 mg/kg repeated oral (G2), female, week 13, mean) was 9.8 kg, the Weight (200 mg/kg repeated oral (G2), female, week pre, individual animals) was 9.6 (2×) and 9.1 and the Weight, Mean (200 mg/kg repeated oral (G2), female, week pre, mean) was 9.4 kg. For the same compound, the Weight (200 mg/kg repeated oral (G2), male, week 0, individual animals) was 10.1 (2×) and 10.2, the Weight, Mean (200 mg/kg repeated oral (G2), male, week 0, mean) was 10.1 kg and the Weight (200 mg/kg repeated oral (G2), male, week 1, individual animals) was 10.1 (2×) and 10.2. The Weight, Mean (200 mg/kg repeated oral (G2), male, week 1, mean) was 10.1 kg, the Weight (200 mg/kg repeated oral (G2), male, week 2, individual animals, in kg (unit assumed)) was 9.9 and 10.1 and 10.0 and the Weight, Mean (200 mg/kg repeated oral (G2), male, week 2, mean) was 10 kg. For the same compound, the Weight (200 mg/kg repeated oral (G2), male, week 3, individual animals) was 10.0 and 10.1 (2×), the Weight, Mean (200 mg/kg repeated oral (G2), male, week 3, mean) was 10.1 kg and the Weight (200 mg/kg repeated oral (G2), male, week 4, individual animals) was 10.0 and 10.3 (2×). For the same compound, the Weight, Mean (200 mg/kg repeated oral (G2), male, week 4, mean) was 10.2 kg, the Weight (200 mg/kg repeated oral (G2), male, week 5, individual animals, in kg (unit assumed)) was 10.1 and 10.5 and 10.3 and the Weight, Mean (200 mg/kg repeated oral (G2), male, week 5, mean) was 10.3 kg. The Weight (200 mg/kg repeated oral (G2), male, week 6, individual animals, in kg (unit assumed)) was 10.0 and 10.1 and 10.3, the Weight, Mean (200 mg/kg repeated oral (G2), male, week 6, mean) was 10.1 kg and the Weight (200 mg/kg repeated oral (G2), male, week 7, individual animals) was 10.1 and 10.3 (2×). For the same compound, the Weight, Mean (200 mg/kg repeated oral (G2), male, week 7, mean) was 10.2 kg, the Weight (200 mg/kg repeated oral (G2), male, week 8, individual animals, in kg (unit assumed)) was 10.1 and 10.3 and 10.2 and the Weight, Mean (200 mg/kg repeated oral (G2), male, week 8, mean) was 10.2 kg. For the same compound, the Weight (200 mg/kg repeated oral (G2), male, week 9, individual animals, in kg (unit assumed)) was 10.1 and 10.4 and 10.3, the Weight, Mean (200 mg/kg repeated oral (G2), male, week 9, mean) was 10.3 kg and the Weight (200 mg/kg repeated oral (G2), male, week 10, individual animals, in kg (unit assumed)) was 10.2 and 10.4 and 10.3. The Weight, Mean (200 mg/kg repeated oral (G2), male, week 10, mean) was 10.3 kg, the Weight (200 mg/kg repeated oral (G2), male, week 11, individual animals, in kg (unit assumed)) was 10.1 and 10.4 and 10.3 and the Weight, Mean (200 mg/kg repeated oral (G2), male, week 11, mean) was 10.3 kg. For the same compound, the Weight (200 mg/kg repeated oral (G2), male, week 12, individual animals) was 10.2 (2×) and 10.4, the Weight, Mean (200 mg/kg repeated oral (G2), male, week 12, mean) was 10.3 kg and the Weight (200 mg/kg repeated oral (G2), male, week 13, individual animals) was 10.2 (2×) and 10.4. For the same compound, the Weight, Mean (200 mg/kg repeated oral (G2), male, week 13, mean) was 10.3 kg, the Weight (200 mg/kg repeated oral (G2), male, week pre, individual animals, in kg (unit assumed)) was 10.1 and 10.3 and 10.2 and the Weight, Mean (200 mg/kg repeated oral (G2), male, week pre, mean) was 10.2 kg. The Weight, Mean (500 mg/kg repeated oral (G3), female, week 0, mean) was 9.5 kg, the Weight, Mean (500 mg/kg repeated oral (G3), female, week 1, mean) was 9.6 kg and the Weight, Mean (500 mg/kg repeated oral (G3), female, week 2, mean) was 9.5 kg. The Weight, Mean (500 mg/kg repeated oral (G3), female, week 3, mean) was 9.6 kg and the Weight, Mean (500 mg/kg repeated oral (G3), female, week 4, mean) was 9.8 kg.
